Series [1] relates to DLBCL strain SU-DHL-4 subcutaneously transplanted tumor. In words: Antitumor effect on subcutaneous transplant model in SCID mouse. The format is in vivo. Conditions: 3 mg/kg intravenously 5 times a week for 2 weeks; male SCID mouse; versus vehicle administration group. How it is done: Antitumor Effect on Subcutaneous Transplant Model in SCID Mouse DLBCL Strain SU-DHL-4
1×10^7 cells of DLBCL strain SU-DHL-4 (Code No. ACC 495, Deutsche Sammlung von Mikroorganismen and Zellkulturen GmbH) suspended in a 1:1 mixed solution of PBS and matrigel (CORNING Code No. 354234) were transplanted subcutaneously to the ventral side of a male SCID mouse. Eighteen days after the transplantation, the body weight and the tumor diameter were measured, the tumor volume was calculated by the following formula, and the mice were divided into two groups (n=5) so that the average tumor volume of each group was equal. E-workbook software (ID Business Solusions) was used for grouping and measurement. […]
The test was conducted in two groups, a vehicle administration group and a compound 1a administration group (compound administration group). […] After the start of the test, body weight and tumor diameter were measured twice a week. The tumor volume on each measurement day was calculated by the above formula. The tumor growth rate (hereinafter referred to as V/V0) was calculated by dividing the tumor volume V on each measurement day by the tumor volume V0 on the test start day (Day 0). The T/C was calculated by dividing the average value (T) of V/V0 of each group by the average value (C) of the vehicle administration group.

Series [2] has as its system SU-DHL-4 cells. In words: Inhibitory effect on cell viability (Cell Counting Kit-8). The format is cell-based. As to conditions: Homo sapiens, 72 hours culture with test compound, concentration showing 90% inhibition rate of cell viability. An outline of the steps: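 SU-DHL-4 cells (2000/well, RPMI1640 with 10% FBS) precultured 18-25 h, then exposed to a 9-step compound dilution series (0.1% DMSO final) for 72 h at 37° C. Viability by CCK-8 absorbance at 450 nm after 2-3 h; IC90 computed from inhibition rate relative to untreated and cell-free wells.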
A general note: Tetrazolium dyes change colour on reduction, which living cells bring about.

A short description of series [3]: Body weight in SU-DHL-4 subcutaneous transplant model. The format is in vivo. As to conditions: 3 mg/kg intravenously 5 times a week for 2 weeks, male SCID mouse; for Body weight: mean of n=5. How it is done: 1×10^7 cells of DLBCL strain SU-DHL-4 (Code No. ACC 495, Deutsche Sammlung von Mikroorganismen and Zellkulturen GmbH) suspended in a 1:1 mixed solution of PBS and matrigel (CORNING Code No. 354234) were transplanted subcutaneously to the ventral side of a male SCID mouse. Eighteen days after the transplantation, the body weight and the tumor diameter were measured, the tumor volume was calculated by the following formula, and the mice were divided into two groups (n=5) so that the average tumor volume of each group was equal. E-workbook software (ID Business Solusions) was used for grouping and measurement. [Tumor volume (mm^3)]=[Tumor long diameter (mm)]×[Tumor short diameter (mm)]^2×0.5
The test was conducted in two groups, a vehicle administration group and a compound 1a administration group (compound administration group). To the compound 1a administration group, a solution of compound 1a dissolved in 30% DMSO/3% Tween 80/physiological saline so as to give a final concentration of 0.6 mg/mL was administered intravenously (tail vein) at 5 mL/kg (3 mg/kg) 5 times a week for 2 weeks. To the vehicle administration group, 30% DMSO/3% Tween 80/physiological saline was administered intravenously (tail vein) at 5 mL/kg on the same schedule as the compound 1a administration group. After the start of the test, body weight and tumor diameter were measured twice a week. The tumor volume on each measurement day was calculated by the above formula. The tumor growth rate (hereinafter referred to as V/V0) was calculated by dividing the tumor volume V on each measurement day by the tumor volume V0 on the test start day (Day 0). The T/C was calculated by dividing the average value (T) of V/V0 of each group by the average value (C) of the vehicle administration group.

What is called IC90 is the concentration at which the effect reaches the 90% level. High values mean a need for much substance, low ones an effect from little substance. With `CCC(=O)N1c2ccccc2[C@H](Nc2ccc(C(=O)NCCCNC(=O)c3ccc(N[C@@H]4C[C@H](C)N(C(=O)CC)c5ccccc54)cc3)cc2)C[C@@H]1C` (single isomer, unassigned) [Compound 1a, N,N′-(Propane-1,3-diyl)bis(4-{[(2S*,4R*)-2-methyl-1-propionyl-1,2,3,4-tetrahydroquinolin-4-yl]amino}benzamide)], in series [1], the “Antitumor effect on SU-DHL-4 subcutaneously transplanted tumor (in words)” value is reported as “strong antitumor effect”. In addition, the 90% effect concentration (IC90) in series [2] came to 5.21 nM. Also, the “Weight loss (in words)” value in series [3] is on record as “no weight loss was observed”. Further, the Body weight is 24.56 g in series [3] (Day 0); 25.36 g in series [3] (Day 3); 25.44 g in series [3] (Day 7); 25.14 g in series [3] (Day 10); 25.74 g in series [3] (Day 14); 26.23 g in series [3] (Day 18).

The record behind these values is patent US12054494B2, “Compound with anticancer activity” (KYOWA KIRIN CO., LTD., priority 2018, dated 2024).
